Data published in patent US10370404B2, “Protoescigenin derivative, process of its preparation, use of said compound and pharmaceutical composition comprising that compound” (Warszawski Uniwersytet Medyczny, priority 2015, dated 2019).

Assays:
[1] = Biochemical analysis of the serum samples; assay type: in vivo, rat; settings: control and experimental rats; sodium salt 10 mg/ml oral gavage, 4 weeks
Experimental: (§1) The rats in sub-groups receiving compound of the invention were treated for 4 weeks with the compound of the invention (E-38) in form of sodium salt (10 mg/ml, 13.7 mM) administered by oral gavage.
After 4 weeks, rats were sacrificed and measurements were conducted. Non-operated rats were fed during the whole experiment. Blood samples for serum analysis were collected before the animals were sacrificed. Biochemical analysis of the blood samples was conducted using biochemical analyzer Cobas 6000 (Roche, Hitachi).
In order to verify whether the administration of the compound of the invention results in any toxic effects influence in tested rats, the inventors conducted a set of basic biochemical tests of the serum isolated from the blood samples obtained from the control and experimental rats.
The conducted blood serum test included following parameters: glucose (GLUC), creatinin (CREA), urea (UREA), total protein (TP), uric acid (UA), amylase (AMYL), albumin (ALB), cholesterol (CHOL), triglicerides (TRIG), lipase (LIP), aspartate aminotransferase (AST), alanine aminotransferase (ALT), creatine kinase (CK).

[2] = system: male Wistar rats (un-operated control group); assay: Un-operated control rats: thigh circumference, muscle weight, femoral bone length; assay type: in vivo, rat; settings: sodium salt 10 mg/ml oral gavage, 4 weeks
Experimental: (§2) The below experiments were performed on male Wistar rats, at the age of 8-10 weeks, divided into two groups: the experimental group with surgically created side-to-side arterio-venous fistula between common femoral vessels (n=23) and a control group of un-operated animals (n=10). The experiment was approved by the local Bioethics Commission for experiments on animals, Warsaw 02-091, Żwirki i Wigury 61 (resolutions nr 11/2009 dated Jun. 23, 2009 and 46/12 dated Sep. 25, 2012).
Rats in the control group were also divided into two sub-groups, receiving no treatment (n=6) and receiving the compound of the invention (n=4). These animals were not subjected to any surgical procedure.
as §1
(§3) After 4 weeks, rats were sacrificed and measurements were conducted. Non-operated rats were fed during the whole experiment. Blood samples for serum analysis were collected before the animals were sacrificed. […]
(§4) After euthanasia, measurements of thigh circumference limbs of animals of the experimental and control groups were performed. […] Femoral bones were excised and their length was measured with an electronic slide clipper.
(§5) The results were expressed as arithmetic means and standard errors of the mean (SEM). […]

[3] = system: male Wistar rats with surgically created side-to-side arterio-venous fistula between common femoral vessels; assay: Rat arteriovenous fistula model of Parkes Weber syndrome: thigh circumference, muscle weight, femoral bone length; assay type: in vivo; settings: sodium salt 10 mg/ml oral gavage, 4 weeks
Experimental: as §2
Rats in experimental group were divided into two sub-groups, receiving no treatment (n=14) and receiving compound of the invention (n=9). Each animal was subjected to following surgical operations.
After induction of general anesthesia longitudinal skin incision just below inguinal ligament was performed. […] After application of micro-vascular clamps on common femoral vessels longitudinal 2 mm±0.1 mm long incision on antero-lateral side of the vein and antero-medial side of the artery were performed. Afterwards side-to-side anastomosis between common femoral vessels was performed to create arteriovenous fistula (non-absorbable monofilament suture 10/0). Subsequently micro-vascular clamps were removed and arteriovenous fistula patency was checked and haemostasis was achieved. […] The resultant vein lumen corresponded to approximately 80-90% of the initial vein lumen. Next, subcutaneous tissue and skin were sutured with absorbable suture.
The above procedure results in obtaining an animal model of Parkes Weber syndrome, described in the European patent application EP14001527. Hereinafter, these limbs are referred to as AVF limbs.
The operation of the right hind limb (control limb) included skin incision, common femoral vessels dissection, and subcutaneous and skin suture (absorbable suture). Hereinafter, these limbs are referred to as sham-operated limbs.
Animals were fed for 1 week, than surgical procedures were conducted. After the operation, animals were fed and treated with the compound of the invention.
as §1, §3, §4, §5

[4] = system: Human Umbilical Vein Endothelial Cells (HUVEC); assay: HUVEC cell migration assay; assay type: cell-based; settings: 2 μM; rhTNF-α 10 ng/ml
Experimental: (§6) Human Umbilical Vein Endothelial Cells (HUVEC) were cultured in the EBM-2 (Lonza) supplemented with endothelial growth supplement mix (EGM-2 SingleQuot Kit Supplements and Growth Factors, Lonza) and 2% foetal bovine serum under standard cell culture condition (37° C., 5% CO2). Cells were harvested using Accutase (PAA Laboratories). All described experiments were performed with cells of passage four from at least three donors. The cells were treated with the compound of the invention at 2 μM for 24 h with or without an additional of 6 h stimulation of recombinant human TNF-α (rhTNF-α, 10 ng/ml, R&D Systems).
The rate of cell migration was measured with the Angiogenesis System: Endothelial Cell Migration (BD Biosciences) strictly according to the manufacturer's instructions.
The rate of cell migration was measured with Angiogenesis System: Endothelial Cell Migration (BD Biosciences). Briefly, 90% confluent HUVEC were incubated with the compound of the invention at 2 μM concentration in a complete culture medium for 24 h, then starved for 4 h in a medium containing 0.1% serum. Following seeing on migration inserts ([…] in 250 μl of media containing the compound of the invention) HUVEC were stimulated with rhTNF-α (10 ng/ml, R&D Systems). […]

[5] = system: Human Umbilical Vein Endothelial Cells (HUVEC); assay: HUVEC in vitro vascular permeability assay; assay type: cell-based; settings: 2 μM for 24 h; rhTNF-α for the last 6 h
Experimental: as §6
The In Vitro Vascular Permeability Assay Kit (Chemicon) was used to determine HUVEC monolayer permeability. All the steps of the procedure were performed according to the manufacturer's instructions.
The In Vitro Vascular Permeability Assay Kit (Chemicon) was used to determine HUVEC monolayer permeability following 24 h treatment of the compound of the invention at 2 μM concentrations. The effect of rhTNF-α (R&D Systems), which was added to cell culture for the last 6 h of the incubation period, was also determined. The subsequent steps of the procedure were performed according to the manufacturer's instructions.

[6] = left hind (AVF) limbs vs experimental group with no treatment

influence on measured parameters (thigh circumference, EDL and SOL muscle weight, femoral bone length) [2]: insignificant influence
SMILES: CC1(C)C[C@H]2C3=CCC4[C@@]5(C)CC[C@H](O)[C@](C)(CO)C5CC[C@@]4(C)[C@]3(C)C[C@@H](O)[C@@]2(COCc2cn(-c3ccc(C(=O)O)cc3)nn2)[C@@H](O)[C@@H]1O (some centres unmarked) [compound of the invention]
influence on blood serum parameters (GLUC, CREA, UREA, TP, UA, AMYL, ALB, CHOL, TRIG, LIP, AST, ALT, CK) [1]: no significant influence
effect on measured parameters (thigh circumference, EDL and SOL muscle weight, femoral bone length) ([3]; AVF rats): reduction of the measured parameters to a very significant extent
reduction of EDL muscle weight [3, 6]: approx. 59.2%
reduction of SOL muscle weight [3, 6]: approx. 63.6%
reduction of thigh circumference [3, 6]: approx. 12.5%
TNF-α-induced cell migration [4]: reduced
TNF-α-induced endothelial cells permeability [5]: significantly decreased
